In patent publication US20220098265A1 (MEDIMMUNE LIMITED, priority 2012, published 2022):
Numbered stars: 1 amine (or outer) side, 2 acyl side, 3 side chain; on linkers, the order of the positions; unused ones are H or OH. Side chains are listed from the residue outwards. Peptide text beside a SMILES is read from it. * marks the point of attachment. γGlu = O=C(O)[C@H](CCC(=O)[*:2])N[*:1]; Palmitoyl = CCCCCCCCCCCCCCCC(=O)*

Assays:
[1] = Stability testing of peptides in mouse plasma; format: in vitro ADME
Experimental: (§1) Stability testing of peptides in plasma. The stability in plasma of the peptides […], […], […] and […] was determined as follows. […] The frozen blank plasma from human, rat and mouse had been thawed and heated to a temperature of 37° C. before addition of the stock solution. The spiked plasma samples were gently mixed and allowed to equilibrate for about 5 minutes before start of experiment. The plasma samples were incubated for 48 hours in a Galaxy® CO2 incubator at 37° C. […] The samples were stored at -70° C. until analysis. Plasma samples were assayed as follows. The 30 μL plasma samples were protein precipitated with […] of cold ethanol in a 96-well low bind plate (Eppendorf Protein LoBind). After mixing and centrifugation 100 μl the supernatant was transferred to a new plate and 1 μl was injected onto an analytical column. The analysis was performed using a μLC-system ([…]) coupled to a medium high resolution mass spectrometer (Perkin Elmer PenTOF) with positive electrospray ionisation. […] Flow: 0.1 ml/min using a slow reversed phase gradient. […] Products with +1 mass may arise from deamidation at amide groups of glutamine or at the C-terminus. Cleavage products arise from the action of the protease DPP IV in plasma. Both the degradation of the peptides and formation of peptide products were reported in percentage of the initial peptide concentration. Peaks were integrated and % remaining peptide was calculated: […] Levels of deamidation and DPP IV cleavage were low for […] and […].

[2] = Stability testing of peptides in human plasma; format: in vitro ADME
Experimental: as §1

[3] = Stability testing of peptides in rat plasma; format: in vitro ADME
Experimental: Stability testing of peptides in plasma. The stability in plasma of the peptides […], […], […] and […] was determined as follows. […] The frozen blank plasma from human, rat and mouse had been thawed and heated to a temperature of 37° C. before addition of the stock solution. The spiked plasma samples were gently mixed and allowed to equilibrate for about 5 minutes before start of experiment. The plasma samples were incubated for 48 hours in a Galaxy® CO2 incubator at 37° C. […] The samples were stored at -70° C. until analysis. Plasma samples were assayed as follows. The 30 μL plasma samples were protein precipitated with […] of cold ethanol in a 96-well low bind plate (Eppendorf Protein LoBind). After mixing and centrifugation 100 μl the supernatant was transferred to a new plate and 1 μl was injected onto an analytical column. The analysis was performed using a μLC-system ([…]) coupled to a medium high resolution mass spectrometer (Perkin Elmer PenTOF) with positive electrospray ionisation. […] Flow: 0.1 ml/min using a slow reversed phase gradient. […] Products with +1 mass may arise from deamidation at amide groups of glutamine or at the C-terminus. Cleavage products arise from the action of the protease DPP IV in plasma. […] Peaks were integrated and % remaining peptide was calculated: […] […]

DIO mice = experiment: Diet induced obesity (DIO) mouse model, study A; format: in vivo; details: for HOMA / Hepatic TG / Plasma NEFA / Plasma TG: day 14; for FGF21 / BeHy: day 14 (dose from row order); for Glucose / Insulin: day 14, 4-hour fasting; for BeHy: beta-hydroxybutyrate
Excerpt: Female C57/B16JHsdOla (obtained from Harlan Laboratories, UK) were started on a high fat diet of D12492 (Research Diets, NJ, USA) and a chocolate confection, delicato ball (Delicata Bakverk, Sweden) at 9-11 weeks of age, and were maintained on the diet for 16 weeks prior to arrival to the animal facility, during a three week acclimatizion period and during drug treatment, caloric content of the two components of the diet is shown in Table 11. The mice were divided into 9 groups (n=5-6), and treatment was started at 29 weeks of age.
The body weight of the animals was monitored daily throughout the dosing period. At day 14, blood samples for the measurement of plasma glucose and insulin from conscious mice were obtained after a 4-hour fasting period. Mice were then anaesthetized using isofluorane and terminal blood was collected from the capillary bed behind the eye. The following parameters were measured: blood chemistry measurements of triglycerides, total cholesterol, non-esterified fatty acids (NEFA), beta-hydroxybutyrate and fibroblast growth factor 21 (FGF21) (Tables 14 and 15 below).

physchem = details: pH 7.2
Experimental: Peptide solubility was assessed in three different isotonic formulations: • 1. […] Final formulation pH=7.2 • 2. Back up formulation 1 (BF1)=0.05M Tris, 50 mM Arginine/Proline. Final formulation pH=8.0 • 3. […] Final formulation pH=7.0

human serum albumin = human serum albumin (Homo sapiens, UniProt P02768); experiment: Fraction of free peptide at plasma concentration of albumin, calculated from variation in cAMP generation with HSA concentration; format: in vitro ADME; design: purchased Sigma Aldrich; details: calculated from variation in cAMP generation with HSA concentration
human serum albumin, sequence (P02768 25-609): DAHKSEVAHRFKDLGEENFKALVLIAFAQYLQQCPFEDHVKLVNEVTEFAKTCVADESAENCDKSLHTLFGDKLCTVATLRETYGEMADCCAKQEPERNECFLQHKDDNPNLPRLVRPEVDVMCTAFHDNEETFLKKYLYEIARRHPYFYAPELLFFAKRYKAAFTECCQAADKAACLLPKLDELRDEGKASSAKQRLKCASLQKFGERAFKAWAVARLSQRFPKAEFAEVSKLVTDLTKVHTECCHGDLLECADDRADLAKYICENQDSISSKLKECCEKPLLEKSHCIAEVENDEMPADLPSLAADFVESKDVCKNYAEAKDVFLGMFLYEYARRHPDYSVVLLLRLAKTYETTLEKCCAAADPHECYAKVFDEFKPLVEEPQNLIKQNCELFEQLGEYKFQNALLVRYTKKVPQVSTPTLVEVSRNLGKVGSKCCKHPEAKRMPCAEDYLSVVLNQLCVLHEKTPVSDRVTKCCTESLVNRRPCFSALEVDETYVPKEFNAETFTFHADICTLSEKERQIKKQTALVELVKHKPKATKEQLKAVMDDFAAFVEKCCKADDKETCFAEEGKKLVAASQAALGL

[4] = Peptide solubility in buffers (A280); details: target 1 mg/ml
Rat GlucR = Rat GlucR (Rattus norvegicus, UniProt P30082); experiment: cAMP assay 2 in […] rat serum albumin, rat GlucR; details: assay 2, […] Rat Serum Albumin; relative potencies vs natural ligands
Rat GlucR, sequence (P30082 27-485): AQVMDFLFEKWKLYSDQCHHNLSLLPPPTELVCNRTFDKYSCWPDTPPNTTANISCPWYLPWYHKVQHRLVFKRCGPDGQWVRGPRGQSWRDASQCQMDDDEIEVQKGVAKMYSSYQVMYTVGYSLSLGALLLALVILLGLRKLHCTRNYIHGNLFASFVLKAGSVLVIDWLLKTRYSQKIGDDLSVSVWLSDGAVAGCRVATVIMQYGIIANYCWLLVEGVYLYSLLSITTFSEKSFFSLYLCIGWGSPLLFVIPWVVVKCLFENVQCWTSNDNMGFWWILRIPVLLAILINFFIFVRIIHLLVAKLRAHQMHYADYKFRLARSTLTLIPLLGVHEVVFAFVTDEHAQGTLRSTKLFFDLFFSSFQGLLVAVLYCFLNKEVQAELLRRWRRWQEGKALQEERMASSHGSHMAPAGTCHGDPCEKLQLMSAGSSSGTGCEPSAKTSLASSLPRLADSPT

Mouse GlucR = Mouse GlucR (Mus musculus, UniProt Q61606); experiment: cAMP assay 2 in […] mouse serum albumin, mouse GlucR; details: assay 2, […] Mouse Serum Albumin; relative potencies vs natural ligands
Mouse GlucR, sequence (Q61606 27-485): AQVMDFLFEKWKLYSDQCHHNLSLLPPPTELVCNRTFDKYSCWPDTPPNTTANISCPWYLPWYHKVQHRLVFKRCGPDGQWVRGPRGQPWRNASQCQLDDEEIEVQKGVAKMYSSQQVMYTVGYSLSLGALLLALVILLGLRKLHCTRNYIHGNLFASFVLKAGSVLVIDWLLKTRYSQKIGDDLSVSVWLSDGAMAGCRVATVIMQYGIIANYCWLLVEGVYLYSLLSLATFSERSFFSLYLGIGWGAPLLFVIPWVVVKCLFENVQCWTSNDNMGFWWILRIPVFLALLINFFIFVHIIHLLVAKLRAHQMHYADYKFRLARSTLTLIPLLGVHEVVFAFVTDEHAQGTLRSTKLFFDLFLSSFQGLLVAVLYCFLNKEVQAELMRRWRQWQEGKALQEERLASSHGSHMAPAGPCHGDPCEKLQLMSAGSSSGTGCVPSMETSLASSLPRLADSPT

Human GlucR = Human GlucR (Homo sapiens, UniProt P47871); experiment: cAMP assay 2 in 4.4% human serum albumin, human GlucR; details: assay 2, 4.4% Human Serum Albumin; relative potency GlucR (vs glucagon)/relative potency GLP1R (vs GLP1)
Human GlucR, sequence (P47871 26-477): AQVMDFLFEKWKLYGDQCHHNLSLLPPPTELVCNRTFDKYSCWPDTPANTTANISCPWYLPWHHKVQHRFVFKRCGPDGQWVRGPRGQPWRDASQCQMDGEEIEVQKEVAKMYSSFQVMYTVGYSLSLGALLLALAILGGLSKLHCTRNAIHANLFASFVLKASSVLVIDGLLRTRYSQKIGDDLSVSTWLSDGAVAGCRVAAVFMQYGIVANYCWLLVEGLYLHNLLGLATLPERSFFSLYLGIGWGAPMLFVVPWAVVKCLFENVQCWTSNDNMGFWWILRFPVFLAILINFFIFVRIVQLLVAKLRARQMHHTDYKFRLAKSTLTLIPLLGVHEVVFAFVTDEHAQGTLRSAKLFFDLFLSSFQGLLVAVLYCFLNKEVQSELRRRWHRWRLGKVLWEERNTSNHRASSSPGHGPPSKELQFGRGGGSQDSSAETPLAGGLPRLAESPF

CCCCCCCCCCCCCCCC(=O)N[C@@H](CCC(=O)NCCCC[C@H](NC(=O)[C@H](CCCCN)NC(=O)[C@H](CO)NC(=O)[C@H](Cc1ccc(O)cc1)NC(=O)[C@H](CC(=O)O)NC(=O)[C@H](CO)NC(=O)[C@@H](NC(=O)[C@H](Cc1ccccc1)NC(=O)[C@@H](NC(=O)CNC(=O)[C@H](CCC(N)=O)NC(=O)[C@H](CO)NC(=O)[C@@H](N)Cc1c[nH]cn1)[C@@H](C)O)[C@@H](C)O)C(=O)N[C@@H](CC(C)C)C(=O)N[C@@H](CC(=O)O)C(=O)N[C@@H](CO)C(=O)N[C@@H](CCC(=O)O)C(=O)N[C@@H](CCCNC(=N)N)C(=O)N[C@@H](C)C(=O)N[C@@H](CCCNC(=N)N)C(=O)N[C@@H](CC(=O)O)C(=O)N[C@@H](Cc1ccccc1)C(=O)N[C@H](C(=O)N[C@@H](C)C(=O)N[C@@H](Cc1c[nH]c2ccccc12)C(=O)N[C@@H](CC(C)C)C(=O)N[C@H](C(=O)N[C@@H](C)C(=O)NCC(=O)NCC(N)=O)C(C)C)C(C)C)C(=O)O [Peptide G730] (H-HSQGTFTSDYSKK([γGlu-Palmitoyl])LDSERARDFVAWLVAGG-NH2; N-terminus assumed)
% +1 prod [1]: 15% | % DPP cleaved product ([1]; Mouse Plasma at 24 h, 37° C., column % DPP cleaved product/+1 DPP cleaved product, first figure): 14% | % +1 DPP cleaved product ([1]; Mouse Plasma at 24 h, 37° C., column % DPP cleaved product/+1 DPP cleaved product, second figure): 5% | % +1 prod [2]: <1% | % DPP cleaved product/+1 DPP cleaved product [2]: <1% | % +1 prod [3]: 58% | % DPP cleaved product/+1 DPP cleaved product [3]: 2% | BW day 14 (% change of vehicle mean) (DIO mice; 10 nmol/kg s.c. twice daily for 14 days): −7.5% | HOMA (DIO mice; 10 nmol/kg s.c. twice daily): 3.3 | Hepatic TG (DIO mice; 10 nmol/kg s.c. twice daily): 9.0 g TG/100g Tissue | Plasma NEFA (DIO mice; 10 nmol/kg s.c. twice daily): 0.28 mM | Plasma TG (DIO mice; 10 nmol/kg s.c. twice daily): 0.21 mM | FGF21 (DIO mice; 10 nmol/kg s.c. twice daily): 1963 pg/mL | Glucose (DIO mice; 10 nmol/kg s.c. twice daily): 7.2 mM | Insulin (DIO mice; 10 nmol/kg s.c. twice daily): 0.4 nM | BW day 14 (% change of vehicle mean) (DIO mice; 20 nmol/kg s.c. twice daily for 14 days): −15.6% | HOMA (DIO mice; 20 nmol/kg s.c. twice daily): 1.7 | Hepatic TG (DIO mice; 20 nmol/kg s.c. twice daily): 17.7 g TG/100g Tissue | Plasma NEFA (DIO mice; 20 nmol/kg s.c. twice daily): 0.26 mM | Plasma TG (DIO mice; 20 nmol/kg s.c. twice daily): 0.2 mM | FGF21 (DIO mice; 20 nmol/kg s.c. twice daily): 2236 pg/mL | Glucose (DIO mice; 20 nmol/kg s.c. twice daily): 6.7 mM | Insulin (DIO mice; 20 nmol/kg s.c. twice daily): 0.2 nM | insulin sensitivity index HOMA (DIO mice; 20 nmol/kg, result in words): significantly improved | change in weight at day 14 as compared to the vehicle-treated animals (DIO mice; 50 nmol/kg): about 24% | BW day 14 (% change of vehicle mean) (DIO mice; 50 nmol/kg s.c. twice daily for 14 days): −24.0% | HOMA (DIO mice; 50 nmol/kg s.c. twice daily): 2.1 | Hepatic TG (DIO mice; 50 nmol/kg s.c. twice daily): 28.1 g TG/100g Tissue | Plasma NEFA (DIO mice; 50 nmol/kg s.c. twice daily): 0.32 mM | Plasma TG (DIO mice; 50 nmol/kg s.c. twice daily): 0.23 mM | FGF21 (DIO mice; 50 nmol/kg s.c. twice daily): 5294 pg/mL | Glucose (DIO mice; 50 nmol/kg s.c. twice daily): 5.9 mM | Insulin (DIO mice; 50 nmol/kg s.c. twice daily): 0.3 nM | Total plasma cholesterol (DIO mice; at all doses, result in words): lowered | BeHy (DIO mice; 10 nmol/kg s.c. twice daily): 428 µmol/L | BeHy (DIO mice; 20 nmol/kg s.c. twice daily): 750 µmol/L | BeHy (DIO mice; 50 nmol/kg s.c. twice daily): 1477 µmol/L | effect on body weight over the 14 day dosing period (DIO mice; study A, FIGS. 1-4): dose dependent and continuous weight loss | glucose levels at day 14 (DIO mice; study A, result in words): dose-dependent reduction | solubility (physchem): ≥ 5000 µg/mL | free peptide at 4.4% HSA (human serum albumin): 0.85% | Conc. (mg/ml) A280 ([4]; Glutamate pH 4.5, 100 mM): 0.83 mg/mL | Conc. (mg/ml) A280 ([4]; Phosphate pH 6.5, 100 mM): 0.83 mg/mL | Conc. (mg/ml) A280 ([4]; Phosphate pH 7.5, 100 mM): 0.85 mg/mL | Conc. (mg/ml) A280 ([4]; Phosphate, pH = 6, 100 mM): 0.14 mg/mL | Conc. (mg/ml) A280 ([4]; Tris pH 7.5, 100 mM): 0.83 mg/mL | Conc. (mg/ml) A280 ([4]; Tris pH 8.0, 100 mM): 1.1 mg/mL | Rat GlucR/GLP1R Ratio (Rat GlucR): 0.06 | Mouse GlucR/GLP1R Ratio (Mouse GlucR): 0.04 | Human GlucR/GLP1R Ratio (Human GlucR): 0.122
